One data set addresses BCL-XL (Homo sapiens (Human), UniProt Q07817). Briefly: Protein-protein interaction assay BCL-XL/Bad BH3 peptide (BCL-XL assay, TR-FRET). The conditions noted are these: His-BCL-XL / Bad BH3 peptide, median. Type of data set: binding. Here is the method:
Assay 2 Protein-Protein Interaction Assay: BCL-XL/Bad BH3 Peptide (BCL-XL Assay)
The dose-dependent inhibition by the compounds described in this invention of the interaction between BCL-XL and the BH3 domain of Bad (both human) was determined using a steady state binding competition assay with time-resolved fluorescence energy transfer (TR-FRET) readout. For that purpose BCL-XL (amino acids 1-212, C-terminal fused to a hexahistidine (6×His) tag (SEQ ID 3) and a synthetic Bad BH3-derived peptide of sequence Biotin-PEG2-PEG2-NLWAAQRYGRELRR-Nle-SDEFVDSFKK-amide (SEQ ID 4) served as protein receptor and tracer ligand respectively. The recombinant BCL-XL protein (expressed in E. coli) was purchased from BPS Bioscience (San Diego, Calif., USA). The Bad BH3-derived peptide can be obtained from e.g. Biosyntan (Berlin, Germany).
In the assay 11 different concentrations of each compound (0.1 nM, 0.33 nM, 1.1 nM, 3.8 nM, 13 nM, 44 nM, 0.15 μM, 0.51 μM, 1.7 μM, 5.9 μM and 20 μM) were typically measured as duplicates in the same microtiter plate. For that, 100-fold concentrated DMSO solutions were prepared by serial dilutions (1:3.4) of a 2 mM stock solution in a clear, 384-well microtiter plate (Greiner Bio-One, Frickenhausen, Germany). From there, 50 nl were transferred in a dark test plate (Greiner Bio-One, Frickenhausen, Germany). The assay was initiated by addition of 2 μl of a 2.5-fold concentrated His-BCL-XL solution (usually for a 1 nM end concentration in 5 μl reaction volume) in aqueous assay buffer [50 mM Tris/HCl pH 7, 100 mM sodium chloride (NaCl), 50 mM potassium fluoride (KF), 0.005% Tween-20, 2 mM DTT, 0.1% bovine gamma globulin (BGG)] to the compounds in the assay plate. This was followed by a 10-minute incubation step at 22° C. for pre-equilibration of the putative complex between His-BCL-XL and the compounds. After that, 3 μl of a 1.67-fold concentrated solution (in assay buffer) consisting of Bad BH3-derived peptide (1 nM end concentration) and TR-FRET detection reagents [1.67 nM anti-His-Eu cryptate and 1.67 nM streptavidin-XL665 (both from Cisbio Bioassays, Codolet, France)], were added.
The mixture was incubated in the dark for one hour at 22° C. and then overnight at 4° C. The formation of BCL-XL/Bad complexes was determined by measuring the resonance energy transfer of the anti-His- Eu-cryptate antibody to the streptavidin-XL665 present in the reaction. For that purpose, the fluorescence emission at 620 nm and 665 nm after excitation at 330-350 nm was measured in a TR-FRET measuring instrument, for instance a Rubystar or a Pherastar (both from BMG Lab Technologies, Offenburg, Germany) or a Viewlux (Perkin-Elmer). The ratio of the emission at 665 nm and at 622 nm was used as indicator of the amount of BCL-XL/Bad complexes present.
The resulting data (ratio) were normalized, taking 0% inhibition as the mean value of control measurements (usually 32 data points) where all reagents were included. In this case 50 nl DMSO were used instead of compounds. A 100% inhibition corresponded to the mean value of control measurements (usually 32 data points) where all reagents except BCL-XL were included. IC50 values were determined by regression analysis based on a 4 parameter equation (minimum, maximum, IC50, Hill; Y=Max+(Min−Max)/(1+(X/IC50)^HiII) using the Screener Software (Genedata).

For data set [1], the system named is SUDHL10. Briefly: Induction of caspase-3/7 activity (Assay 4), SUDHL10. The conditions noted are these: caspase-3/7 induction, median. It is filed as cell-based. An outline of the steps:
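Caspase-3/7 activity measured by Caspase-Glo 3/7 luminescence in DLBCL cells after 3 h compound treatment at 37 °C. Medium-only background subtracted. EC50 fitted with C0 fixed at 1 and top set to the reference compound's plateau/max induction.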

The subject of a further data set is AMO-1. Briefly: Antiproliferation assay (Assay 7), AMO-1. It is filed as cell-based. The conditions noted are these: CellTiter-Glo, several values per example, read-out: Antiproli AMO-1 [M] IC50. An outline of the steps:
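Anti-proliferative effect is determined from CellTiter-Glo signal after a 72-hour incubation at 37° C, with a time-zero reference plate measured in parallel.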
In general terms: Cellular ATP, detected with luciferase, serves as a proxy for viable cell number.

The subject of data set [2] is SUDHL10. Briefly: Induction of cytotoxicity (Assay 6), SUDHL10. The conditions noted are these: read-out: Cytotox SUDHL10 [M] (median) IC50, CellTiter-Glo, 5 hours, SUDHL10.
Protocol: Assay 6 Induction of Cytotoxicity Upon Treatment of Cells with Selected Compounds
Therefore, cytotoxicity assays were run in parallel in SUDHL5 and SUDHL10 cells.
The different cell lines were plated in culture medium (RPMI 1640 [GIBCO #22400-089] supplemented with 10% Fetal Bovine Serum) at a density of 3,300 cells in 30 μl/well in a sterile, solid black, flat bottom, polystyrene, TC-treated 384-well microplate (Corning #3571) using Multidrop Combi Reagent Dispenser. As a control, medium without cells was also added to the plate. Cells were incubated in a humidified incubator at 37° C. overnight. On the next day, the cells were treated with compounds (stock solution, 10 mM in DMSO) using the HP D300 Digital Dispenser in a concentration range of 3.3×10e-5 M (33 μM) to 5×10e-9 M (5 nM) in a single-dot curve with at least 16 dilutions and a DMSO concentration of 0.33%. Rim wells were excluded. The cells were incubated for 5 hours in a humidified incubator at 37° C. After this incubation, 30 μl of CellTiter-Glo® Luminescent Cell Viability reagent (Promega, G7573) was added to each well using the Multidrop Combi Reagent Dispenser, followed by 15 minutes incubation on a shaker at room temperature. Finally, luminescence was read at 0.1 ms, with a gain of 3000 using the PHERAstar FS microplate reader (BMG Labtech).

Like-named read-outs stand apart in the source and are kept apart here.

BCL-XL, sequence (Q07817 other isoform, or with tags, fused parts or gaps): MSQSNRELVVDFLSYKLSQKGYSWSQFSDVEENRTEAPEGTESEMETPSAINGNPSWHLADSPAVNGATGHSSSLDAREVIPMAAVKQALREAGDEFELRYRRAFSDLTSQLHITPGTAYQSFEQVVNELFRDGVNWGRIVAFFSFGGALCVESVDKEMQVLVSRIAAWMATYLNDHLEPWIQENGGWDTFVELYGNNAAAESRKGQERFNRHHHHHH

The term IC50 denotes the concentration that gives 50% inhibition. What is called EC50 is the concentration needed to bring the measured effect to its halfway point. For the compound `Cc1c2c(nn1C)CN(C)S(=O)(=O)CCCn1c(C(=O)O)c(CCCOc3cccc4c3CCC4)c3ccc(F)c-2c31` (racemic) [Example 27, (rac)-1-(3-((2,3-Dihydro-1H-inden-4-yl)oxy)propyl)-13-fluoro-8,11,12-trimethyl-5,6,9,11-tetrahydro-4H,8H-pyrazolo[3′,4′:4,5][1]thia[2,8]diazacycloundecino[6,7,8-hi]indole-2-carboxylic acid 7,7-dioxide], the IC50 on BCL-XL is above 20 µM; in the data set with AMO-1 (Homo sapiens, AMO1, 72 h), 2.5e-06 M; with SUDHL10 [2] (Homo sapiens, SU-DHL10, 5 h), 2.1e-06 M. The compound further came in with an EC50 in the data set on SUDHL10 [1] (Homo sapiens, SU-DHL10, 3 h) of 2.4 µM.

For `Cc1cc(OCCCc2c(C(=O)O)n3c4c(c(F)ccc24)-c2c(nn(C)c2C)CN(C)S(=O)(=O)CCC3)cc(C)c1Cl` (racemic) [Example 28, (rac)-1-(3-(4-Chloro-3,5-dimethylphenoxy)propyl)-13-fluoro-8,11,12-trimethyl-5,6,9,11-tetrahydro-4H,8H-pyrazolo[3′,4′:4,5][1]thia[2,8]diazacycloundecino[6,7,8-hi]indole-2-carboxylic acid 7,7-dioxide], the IC50 against BCL-XL is above 20 µM; in the data set with AMO-1 (Homo sapiens, AMO1, 72 h), 1.2e-05 M; with SUDHL10 [2] (Homo sapiens, SU-DHL10, 5 h), 8e-06 M. The EC50 in the data set on SUDHL10 [1] (Homo sapiens, SU-DHL10, 3 h) stood at 11 µM.

As for `Cc1c2c(nn1C)CN(C)S(=O)(=O)CCCn1c(C(=O)O)c(CCCOc3cccc4c3CCCC4)c3ccc(F)c-2c31` (racemic) [Example 29, (rac)-13-Fluoro-8,11,12-trimethyl-1-(3-((5,6,7,8-tetrahydronaphthalen-1-yl)oxy)propyl)-5,6,9,11-tetrahydro-4H,8H-pyrazolo[3′,4′:4,5][1]thia[2,8]diazacycloundecino[6,7,8-hi]indole-2-carboxylic acid 7,7-dioxide], the IC50 is above 20 µM on BCL-XL; 7.1e-06 M with AMO-1 (Homo sapiens, AMO1, 72 h); 3.8e-06 M in the data set on SUDHL10 [2] (Homo sapiens, SU-DHL10, 5 h). This compound displayed an EC50 with SUDHL10 [1] (Homo sapiens, SU-DHL10, 3 h) of 4.5 µM.

Regarding `CCc1c2c(nn1C)CN(C)S(=O)(=O)CCCn1c(C(=O)O)c(CCCOc3cccc4ccccc34)c3ccc(F)c-2c31` (racemic) [Example 31, (rac)-12-Ethyl-13-fluoro-8,11-dimethyl-1-(3-(naphthalen-1-yloxy)propyl)-5,6,9,11-tetrahydro-4H,8H-pyrazolo[3′,4′:4,5][1]thia[2,8]diazacycloundecino[6,7,8-hi]indole-2-carboxylic acid 7,7-dioxide], the IC50 at BCL-XL is above 20 µM; in the data set with AMO-1 (72 hours), 3.9e-06 M; in the data set on AMO-1 (Homo sapiens, AMO1, 72 h) it was 4.2e-06 M; with SUDHL10 [2] (Homo sapiens, SU-DHL10, 5 h), 1.9e-06 M. In the data set on SUDHL10 [1] (Homo sapiens, SU-DHL10, 3 h), this compound registered an EC50 of 1.9 µM.

For `CCc1c2c(nn1C)CN(C)S(=O)(=O)CCCn1c(C(=O)O)c(CCCOc3cccc4c3CCC4)c3ccc(F)c-2c31` (racemic) [Example 32, (rac)-1-(3-((2,3-Dihydro-1H-inden-4-yl)oxy)propyl)-12-ethyl-13-fluoro-8,11-dimethyl-5,6,9,11-tetrahydro-4H,8H-pyrazolo[3′,4′:4,5][1]thia[2,8]diazacycloundecino[6,7,8-hi]indole-2-carboxylic acid 7,7-dioxide], the IC50 against BCL-XL is above 20 µM; in the data set on AMO-1 (72 hours), 3.9e-06 M; in the data set on AMO-1 (Homo sapiens, AMO1, 72 h), 2.4e-06 M; with SUDHL10 [2] (Homo sapiens, SU-DHL10, 5 h) it was 1.2e-06 M. In the data set with SUDHL10 [1] (Homo sapiens, SU-DHL10, 3 h), this compound showed an EC50 of 1.1 µM.

Take `CCc1c2c(nn1C)CN(C)S(=O)(=O)CCCn1c(C(=O)O)c(CCCOc3cc(C)c(Cl)c(C)c3)c3ccc(F)c-2c31` (racemic) [Example 33, (rac)-1-(3-(4-Chloro-3,5-dimethylphenoxy)propyl)-12-ethyl-13-fluoro-8,11-dimethyl-5,6,9,11-tetrahydro-4H,8H-pyrazolo[3′,4′:4,5][1]thia[2,8]diazacycloundecino[6,7,8-hi]indole-2-carboxylic acid 7,7-dioxide]: the IC50 is above 20 µM against BCL-XL; 4.8e-06 M with AMO-1 (Homo sapiens, AMO1, 72 h); 6.4e-06 M in the data set on SUDHL10 [2] (Homo sapiens, SU-DHL10, 5 h). The same compound showed an EC50 in the data set with SUDHL10 [1] (Homo sapiens, SU-DHL10, 3 h) of 5.1 µM.

For `CCc1c2c(nn1C)CN(C)S(=O)(=O)CCCn1c(C(=O)O)c(CCCOc3ccc(F)c4ccccc34)c3ccc(F)c-2c31` (racemic) [Example 35, (rac)-12-Ethyl-13-fluoro-1-(34(4-fluoronaphthalen-1-yl)oxy)propyl)-8,11-dimethyl-5,6,9,11-tetrahydro-4H,8H-pyrazolo[3′,4′:4,5][1]thia[2,8]diazacycloundecino[6,7,8-hi]indole-2-carboxylic acid 7,7-dioxide], the IC50 at BCL-XL is above 20 µM; with AMO-1 (72 hours), 6.6e-06 M; in the data set with AMO-1 (Homo sapiens, AMO1, 72 h) it was 5.2e-06 M; in the data set with SUDHL10 [2] (Homo sapiens, SU-DHL10, 5 h), 2.7e-06 M. This compound had an EC50 with SUDHL10 [1] (Homo sapiens, SU-DHL10, 3 h) of 2.6 µM.

Regarding `Cc1c2c(nn1C)CN(C1CC1)S(=O)(=O)CCCn1c(C(=O)O)c(CCCOc3cccc4cc(F)ccc34)c3ccc(Cl)c-2c31` (racemic) [Example 41, (rac)-4-chloro-14-cyclopropyl-7-{3-[(6-fluoro-1-naphthyl)oxy]propyl}-2,3-dimethyl-11,12,14,15-tetrahydro-2H,10H-pyrazolo[3′,4′:4,5][1,2,8]thiadiazacycloundecino[6,7,8-hi]indole-8-carboxylic acid 13,13-dioxide], the IC50 against BCL-XL was 19 µM; in the data set with AMO-1 (72 hours) it was 8e-07 M; with SUDHL10 [2] it was 1.7e-06 M. Besides, the EC50 on SUDHL10 [1] (3 hours) came out at 1.6 µM.

Consider `Cc1c2c(nn1C)C(CCN1CCOCC1)N(C)S(=O)(=O)CCCn1c(C(=O)O)c(CCCOc3cccc4ccccc34)c3cccc-2c31` (racemic) [Example 44, (rac)-2,3,14-trimethyl-15-[2-(rac)-(morpholin-4-yl)ethyl]-7-[3-(1-naphthyloxy)propyl]-11,12,14,15-tetrahydro-2H,10H-pyrazolo[3′,4′:4,5][1,2,8]thiadiazacycloundecino[6,7,8-hi]indole-8-carboxylic acid 13,13-dioxide (Mixture of Stereoisomers)], for which the IC50 against BCL-XL was above 20 µM; with AMO-1 (Homo sapiens, AMO1, 72 h), 4.4e-06 M; in the data set on SUDHL10 [2] (Homo sapiens, SU-DHL10, 5 h) it was 2.6e-06 M. For the same compound, the EC50 with SUDHL10 [1] (Homo sapiens, SU-DHL10, 3 h) is 1.7 µM.

Consider `CCc1c2c(nn1C)C(CCC1CCOCC1)N(C)S(=O)(=O)CCCn1c(C(=O)O)c(CCCOc3cccc4cc(F)ccc34)c3ccc(Cl)c-2c31` (racemic) [Example 59, (rac)-4-chloro-3-ethyl-7-{3-[(6-fluoro-1-naphthyl)oxy]propyl}-2,14-dimethyl-15-[2-(tetrahydro-2H-pyran-4-yl)ethyl]-11,12,14,15-tetrahydro-2H,10H-pyrazolo[3′,4′:4,5][1,2,8]thiadiazacycloundecino[6,7,8-hi]indole-8-carboxylic acid 13,13-dioxide (Racemate 2)], for which the figures for the IC50 against BCL-XL, in the data set on AMO-1 (72 hours) and in the data set with SUDHL10 [2] were 16 µM, 2.1e-07 M and 1e-07 M, respectively. The compound further registered an EC50 with SUDHL10 [1] (3 hours) of 0.078 µM.

For the origin of these results see patent publication US11401278B2, “Macrocyclic indole derivatives” (The Broad Institute, Inc., priority 2017, dated 2022).
